# Reference: PubChem BioAssay (NCI)
#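 All cell lines were grown in 96-well plates and treated with compound for 48 hours. TGI is the concentration that stops growth completely.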
# Tested on: PC-3 prostate
# Experiment: DTP human tumour cell line panel, 48 h
row,Structure (SMILES),TGI [µM]
1,N#CSc1nc[nH]c1C(N)=O,> 100
2,CN(C)C(=O)NCCN1CCCCCc2ccccc21,> 100
3,CCOC(=O)c1nc2c(Cl)c3ncccc3cc2[nH]c1=O,> 100
4,CC1(C#N)CC(C)(C)C(/C=C2/CC(C)(C)C(/C=C3/OC(=N)CC3(C)C)=N2)=N1 (stereo not given),> 100
5,Cc1cccc(/C=N/NC(=S)NCCc2ccccn2)n1,> 100
6,C=CCNC1=C2C[C@@H](C)C[C@@H](OC)[C@@H](OC(=O)CCCN)[C@H](C)/C=C(\C)[C@@H](OC(N)=O)[C@H](OC)/C=C\C=C(/C)C(=O)NC(=CC1=O)C2=O,29.1
7,CC(=O)Oc1ccccc1-c1cc2ccccc2oc1=O,> 100
8,CCOC(=O)C(N)CSC(=O)NC (stereo not given),455
9,CC(=O)c1csc2c1C(=O)c1scc(C(C)=O)c1C2=O,7.49
10,CCOC(=O)c1csc(NC(=O)C(C)N2CCCCC2)n1 (stereo not given),> 100
11,CCN1c2nc3ccccc3nc2N(CC)c2nc3ccccc3nc21,> 100
12,O=C1c2cc3c(cc2CC12Cc1cc4c(cc1C2=O)CCC4)CCCC3 (stereo not given),> 100
13,N#Cc1sc2nc(/C=C3/C=CC=CC3=O)c(O)n2c1N,> 100
14,CC1(C)OCC2OC3(c4nc(C#N)c(N)o4)OC(C)(C)OC3C2O1 (stereo not given),> 100
15,C[C@H]1[C@H](C)CC[C@]2(C)CC[C@]3(C)C(=C[C@@H](O)[C@@H]4[C@@]5(C)[C@H](O)[C@@H](O)[C@H](O)C(C)(C)[C@@H]5CC[C@]43C)[C@H]12,> 100
16,c1cc(-c2ncc(-c3ccc4c(c3)CCCO4)o2)ccn1,46.5
17,COc1ccnc2c1C(=O)c1nc3ccccc3c3ccnc-2c13,1.81
18,O=C(O)c1ccc(NNc2cc(=O)[nH]c(=O)[nH]2)cc1,83.7
19,COc1ccc2c(c1C)C(=O)C(O)(CC=C(C)C)O2 (stereo not given),> 100
20,COc1ccc(CCNC2=CC(=O)c3ncccc3C2=O)cc1OC,23.4
21,COc1ccc2c(c1)CCc1c-2[nH]c2ccc(OC)cc12,> 100
22,N#Cc1c(-c2ccccc2)[nH]c2ccccc2c1=O,> 100
23,O=C(NCCCNC(=O)c1ccc2c(O)c(O)ccc2c1)c1ccc2c(O)c(O)ccc2c1,> 100
24,CC12CCC(C(=O)OC1=O)C2(C)C (stereo not given),> 100
25,CC1=C(Br)C(Br)=C(C)S1=O,48.8
26,O=C1NC(=O)C(c2c[nH]c3cc(Br)ccc23)=C1c1cn(C(c2ccccc2)(c2ccccc2)c2ccccc2)cn1,50.4
27,CCOC(=O)C1=C(Nc2cccc(OC)c2)OCC1=O,> 100

# Tested on: MCF7 breast
# Experiment: DTP human tumour cell line panel, 48 h
row,Structure (SMILES),TGI [µM]
1,CN1CCOC1(C)CO (stereo not given),> 100
2,COc1ccc2c3c1O[C@H]1C(O)CCC4(O)[C@@H](C2)NCC[C@]314 (stereo not given in full),> 100
3,N#CSc1nc[nH]c1C(N)=O,> 100
4,CN(C)C(=O)NCCN1CCCCCc2ccccc21,> 100
5,CCOC(=O)c1nc2c(Cl)c3ncccc3cc2[nH]c1=O,> 100
6,CC1(C#N)CC(C)(C)C(/C=C2/CC(C)(C)C(/C=C3/OC(=N)CC3(C)C)=N2)=N1 (stereo not given),26.3
7,Cc1cccc(/C=N/NC(=S)NCCc2ccccn2)n1,> 100
8,C=CCNC1=C2C[C@@H](C)C[C@@H](OC)[C@@H](OC(=O)CCCN)[C@H](C)/C=C(\C)[C@@H](OC(N)=O)[C@H](OC)/C=C\C=C(/C)C(=O)NC(=CC1=O)C2=O,19.4
9,CC(=O)Oc1ccccc1-c1cc2ccccc2oc1=O,> 100
10,CCOC(=O)C(N)CSC(=O)NC (stereo not given),425
11,CC(=O)c1csc2c1C(=O)c1scc(C(C)=O)c1C2=O,3.31
12,CCOC(=O)c1csc(NC(=O)C(C)N2CCCCC2)n1 (stereo not given),> 100
13,CCN1c2nc3ccccc3nc2N(CC)c2nc3ccccc3nc21,> 100
14,O=C1c2cc3c(cc2CC12Cc1cc4c(cc1C2=O)CCC4)CCCC3 (stereo not given),> 100
15,N#Cc1sc2nc(/C=C3/C=CC=CC3=O)c(O)n2c1N,> 100
16,CC1(C)OCC2OC3(c4nc(C#N)c(N)o4)OC(C)(C)OC3C2O1 (stereo not given),> 100
17,C[C@H]1[C@H](C)CC[C@]2(C)CC[C@]3(C)C(=C[C@@H](O)[C@@H]4[C@@]5(C)[C@H](O)[C@@H](O)[C@H](O)C(C)(C)[C@@H]5CC[C@]43C)[C@H]12,> 100
18,c1cc(-c2ncc(-c3ccc4c(c3)CCCO4)o2)ccn1,80.9
19,COc1ccnc2c1C(=O)c1nc3ccccc3c3ccnc-2c13,0.298
20,O=C(O)c1ccc(NNc2cc(=O)[nH]c(=O)[nH]2)cc1,> 100
21,COc1ccc2c(c1C)C(=O)C(O)(CC=C(C)C)O2 (stereo not given),> 100
22,COc1ccc(CCNC2=CC(=O)c3ncccc3C2=O)cc1OC,3.01
23,COc1ccc2c(c1)CCc1c-2[nH]c2ccc(OC)cc12,> 100
24,N#Cc1c(-c2ccccc2)[nH]c2ccccc2c1=O,> 100
25,O=C(NCCCNC(=O)c1ccc2c(O)c(O)ccc2c1)c1ccc2c(O)c(O)ccc2c1,> 100
26,CC12CCC(C(=O)OC1=O)C2(C)C (stereo not given),> 100
27,CC1=C(Br)C(Br)=C(C)S1=O,> 100
28,O=C1NC(=O)C(c2c[nH]c3cc(Br)ccc23)=C1c1cn(C(c2ccccc2)(c2ccccc2)c2ccccc2)cn1,40.4
29,CCOC(=O)C1=C(Nc2cccc(OC)c2)OCC1=O,> 100

# Tested on: OVCAR-8 ovarian
# Experiment: DTP human tumour cell line panel, 48 h
row,Structure (SMILES),TGI [µM]
1,CN1CCOC1(C)CO (stereo not given),> 100
2,COc1ccc2c3c1O[C@H]1C(O)CCC4(O)[C@@H](C2)NCC[C@]314 (stereo not given in full),> 100
3,N#CSc1nc[nH]c1C(N)=O,> 100
4,CN(C)C(=O)NCCN1CCCCCc2ccccc21,> 100
5,CCOC(=O)c1nc2c(Cl)c3ncccc3cc2[nH]c1=O,> 100
6,CC1(C#N)CC(C)(C)C(/C=C2/CC(C)(C)C(/C=C3/OC(=N)CC3(C)C)=N2)=N1 (stereo not given),74
7,Cc1cccc(/C=N/NC(=S)NCCc2ccccn2)n1,> 100
8,C=CCNC1=C2C[C@@H](C)C[C@@H](OC)[C@@H](OC(=O)CCCN)[C@H](C)/C=C(\C)[C@@H](OC(N)=O)[C@H](OC)/C=C\C=C(/C)C(=O)NC(=CC1=O)C2=O,42.5
9,CC(=O)Oc1ccccc1-c1cc2ccccc2oc1=O,> 100
10,CCOC(=O)C(N)CSC(=O)NC (stereo not given),314
11,CC(=O)c1csc2c1C(=O)c1scc(C(C)=O)c1C2=O,3.09
12,CCOC(=O)c1csc(NC(=O)C(C)N2CCCCC2)n1 (stereo not given),> 100
13,CCN1c2nc3ccccc3nc2N(CC)c2nc3ccccc3nc21,> 100
14,O=C1c2cc3c(cc2CC12Cc1cc4c(cc1C2=O)CCC4)CCCC3 (stereo not given),> 100
15,N#Cc1sc2nc(/C=C3/C=CC=CC3=O)c(O)n2c1N,> 100
16,CC1(C)OCC2OC3(c4nc(C#N)c(N)o4)OC(C)(C)OC3C2O1 (stereo not given),> 100
17,C[C@H]1[C@H](C)CC[C@]2(C)CC[C@]3(C)C(=C[C@@H](O)[C@@H]4[C@@]5(C)[C@H](O)[C@@H](O)[C@H](O)C(C)(C)[C@@H]5CC[C@]43C)[C@H]12,> 100
18,c1cc(-c2ncc(-c3ccc4c(c3)CCCO4)o2)ccn1,94.9
19,COc1ccnc2c1C(=O)c1nc3ccccc3c3ccnc-2c13,0.224
20,O=C(O)c1ccc(NNc2cc(=O)[nH]c(=O)[nH]2)cc1,> 100
21,COc1ccc2c(c1C)C(=O)C(O)(CC=C(C)C)O2 (stereo not given),> 100
22,COc1ccc(CCNC2=CC(=O)c3ncccc3C2=O)cc1OC,17.2
23,COc1ccc2c(c1)CCc1c-2[nH]c2ccc(OC)cc12,> 100
24,N#Cc1c(-c2ccccc2)[nH]c2ccccc2c1=O,> 100
25,O=C(NCCCNC(=O)c1ccc2c(O)c(O)ccc2c1)c1ccc2c(O)c(O)ccc2c1,99.1
26,CC12CCC(C(=O)OC1=O)C2(C)C (stereo not given),> 100
27,CC1=C(Br)C(Br)=C(C)S1=O,> 100
28,O=C1NC(=O)C(c2c[nH]c3cc(Br)ccc23)=C1c1cn(C(c2ccccc2)(c2ccccc2)c2ccccc2)cn1,36.5
29,CCOC(=O)C1=C(Nc2cccc(OC)c2)OCC1=O,> 100
